Data on 21 molecules can be found in paper PMC7024175, “In Depth Analysis of Kinase Cross Screening Data to Identify CAMKK2 Inhibitory Scaffolds” (Molecules, 2020).

Where two headings read alike, the source gives them in different places.

The test system of one data set is BRD4. Particulars: cited from earlier work.
The subject of data set [1] is CAMKK2. The settings on record: activity reported in the literature; cited from earlier work.
In data set [2] the target is T1, CAMKK2 (Homo sapiens, UniProt Q96RR4).
T1 construct: made in house
Description: CAMKK2 enzyme assay (radiometric, CaMKKtide). It is filed as biochemical. Particulars: for remaining activity at 0.1 µM / remaining activity at 1 µM / remaining activity at 0.01 µM: read-out: PoC (activity remaining); for IC50: 8-point full dose response, read-out: IC50.
Description: CAMKK2 activity was determined by measuring the transfer of radiolabeled phosphate from [γ-^32P]-ATP to a synthetic peptide substrate (CaMKKtide) as previously described [49]. Briefly, purified recombinant CAMKK2 (100 pM) was incubated in assay buffer (50 mM HEPES [pH 7.4], 1 mM DTT, 0.02% [v/v] Brij-35) containing 200 μM CaMKKtide (Genscript), 100 μM CaCl2, 1 μM CaM (Sigma-Aldrich, Castle Hill, NSW, Australia) 200 μM [γ-^32P]-ATP (Perkin Elmer, Boston, MA, USA), 5 mM MgCl2 (Sigma-Aldrich, Castle Hill, NSW, Australia) and various concentrations of inhibitors (0–1 μM) in a standard 30 μl assay for 10 min at 30 °C. Reactions were terminated by spotting 15 μl onto P81 phosphocellulose paper (GE Lifesciences, Paramatta, NSW, Australia) and washing extensively in 1% phosphoric acid (Sigma-Aldrich, Castle Hill, NSW, Australia). Radioactivity was quantified by liquid scintillation counting.

Another data set deals with casein kinase 2 (CK2). Also on record: method as in earlier work. Particulars: ref 80 (Bain et al.); cited from earlier work.
The test system of another data set is mice. The settings on record: mouse, in vivo; cited from earlier work.
The subject of data set [3] is aryl hydrocarbon receptor. Also noted: method as in PMID 18755850. Particulars: cited from earlier work.
The conditions of data set [4]: cited from earlier work.
The conditions of data set [5]: HLM, mass spectrometry analysis; cited from earlier work.

T1 sequence (Q96RR4 whole entry): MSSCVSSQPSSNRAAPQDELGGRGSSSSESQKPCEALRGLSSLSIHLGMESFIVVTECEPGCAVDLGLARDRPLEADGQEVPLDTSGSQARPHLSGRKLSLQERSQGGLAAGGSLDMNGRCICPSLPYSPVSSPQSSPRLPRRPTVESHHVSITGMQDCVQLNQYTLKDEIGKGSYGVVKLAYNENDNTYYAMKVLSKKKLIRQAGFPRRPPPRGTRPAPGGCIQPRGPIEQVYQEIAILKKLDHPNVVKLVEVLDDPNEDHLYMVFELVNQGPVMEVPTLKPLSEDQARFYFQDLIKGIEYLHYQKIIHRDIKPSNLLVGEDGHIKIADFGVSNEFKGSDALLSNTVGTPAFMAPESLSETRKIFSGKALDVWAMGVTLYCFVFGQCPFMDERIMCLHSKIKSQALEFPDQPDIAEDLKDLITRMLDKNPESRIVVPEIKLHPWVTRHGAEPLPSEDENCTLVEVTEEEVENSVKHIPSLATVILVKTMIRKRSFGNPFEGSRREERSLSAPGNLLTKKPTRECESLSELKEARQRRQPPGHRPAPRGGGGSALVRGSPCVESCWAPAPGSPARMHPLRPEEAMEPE

Consider `CC[C@@H]1C(=O)N(C)c2cnc(Nc3ccc(C(=O)NC4CCN(C)CC4)cc3OC)nc2N1C1CCCC1` [BI2536], for which the BRD4 inhibition entry in the data set on BRD4 was “potent inhibitor of BRD4”.

As for `O=C(O)c1ccc(-c2c[nH]c3ncc(-c4ccccc4)cc23)cc1C1CCCC1` [GSK650394], the “pIC50 CAMKK2 reported in the literature” value in the data set on CAMKK2 [1] is reported as 9.2. Also, the remaining activity at 0.1 µM on CAMKK2 [2] (0.1 µM inhibitor) worked out at 4%. The remaining activity at 1 µM at CAMKK2 [2] (1.0 µM inhibitor) was found to be 3%.

For the molecule `O=C(NCCCNc1nc(Nc2cccc(CN3CCOCC3)c2)ncc1C1CC1)C1CCC1` [MRT67307], the “PoC (activity remaining)” value was 92% on CAMKK2 [2] (0.01 µM inhibitor), 86% on CAMKK2 [2] (0.1 µM inhibitor) and 35% at CAMKK2 [2] (1.0 µM inhibitor).

On to `CO[C@@H]1[C@H](N(C)C(=O)c2ccccc2)C[C@H]2O[C@]1(C)n1c3ccccc3c3c4c(c5c6ccccc6n2c5c31)C(=O)NC4` [Midostaurin], for which, at CAMKK2 [2], the remaining activity at 0.01 µM was found to be 97%, the remaining activity at 0.1 µM amounted to 82% and the remaining activity at 1 µM worked out at 38%.

As for `CNC(=O)c1nn(C)c2c1C(C)(C)Cc1cnc(Nc3ccc(N4CCN(C)CC4)cc3)nc1-2` [Milciclib], on CAMKK2 [2] (0.01 µM inhibitor), the remaining activity at 0.01 µM amounted to 107%. In addition, on CAMKK2 [2] (0.1 µM inhibitor), the remaining activity at 0.1 µM was 105%. In addition, the remaining activity at 1 µM on CAMKK2 [2] (1.0 µM inhibitor) worked out at 76%.

On to `CC(=O)c1cnc2ccc(-c3cc(Cl)c(O)c(Cl)c3)nc2c1N[C@H]1CC[C@H](CN(C)C)CC1` [OTSSP167], for which the remaining activity at 0.01 µM at CAMKK2 [2] (0.01 µM inhibitor) worked out at 84%. Further, the remaining activity at 0.1 µM at CAMKK2 [2] (0.1 µM inhibitor) was 49%. Moreover, the remaining activity at 1 µM at CAMKK2 [2] (1.0 µM inhibitor) was found to be 0%. Also, the IC50 on CAMKK2 [2] was 86 nM.

Take `Cc1nc(Nc2[nH]nc3c2CN(C(=O)N[C@H](CN(C)C)c2ccccc2)C3(C)C)c2sccc2n1` [PF3758309]: the remaining activity at 0.01 µM at CAMKK2 [2] (0.01 µM inhibitor) turned out to be 95%. Moreover, at CAMKK2 [2] (0.1 µM inhibitor), the remaining activity at 0.1 µM was 78%. Besides, at CAMKK2 [2] (1.0 µM inhibitor), the remaining activity at 1 µM is 71%.

As to `CC(=O)NCC(=O)N1[C@@H]2CC[C@H]1c1ccc(Nc3ncc(C(F)(F)F)c(NC4CCC4)n3)cc12` [PF03814735], the “PoC (activity remaining)” value at CAMKK2 [2] (0.01 µM inhibitor) came to 92%; on CAMKK2 [2] (0.1 µM inhibitor) it was 70%; on CAMKK2 [2] (1.0 µM inhibitor), 20%. The IC50 on CAMKK2 [2] turned out to be 227 nM.

With `Cc1[nH]c(/C=C2\C(=O)Nc3ccc(S(=O)(=O)Cc4c(Cl)cccc4Cl)cc32)c(C)c1C(=O)N1CCC[C@@H]1CN1CCCC1` [PHA665752], on CAMKK2 [2] (0.01 µM inhibitor), the remaining activity at 0.01 µM is 109%. Further, at CAMKK2 [2] (0.1 µM inhibitor), the remaining activity at 0.1 µM amounted to 93%. Further, the remaining activity at 1 µM on CAMKK2 [2] (1.0 µM inhibitor) is 67%.

On to `C1=C/COCc2cc(ccc2OCCN2CCCC2)Nc2nccc(n2)-c2cccc(c2)COC/1` [Pacritinib], for which, at CAMKK2 [2] (0.01 µM inhibitor), the remaining activity at 0.01 µM worked out at 96%. The remaining activity at 0.1 µM at CAMKK2 [2] (0.1 µM inhibitor) is 78%. In addition, the remaining activity at 1 µM at CAMKK2 [2] (1.0 µM inhibitor) is 31%.

With `CCOc1cc2ncc(C#N)c(Nc3ccc(F)c(Cl)c3)c2cc1NC(=O)/C=C/CN(C)C` [Pelitinib], the remaining activity at 0.01 µM at CAMKK2 [2] (0.01 µM inhibitor) worked out at 100%. Besides, on CAMKK2 [2] (0.1 µM inhibitor), the remaining activity at 0.1 µM is 84%. Besides, the remaining activity at 1 µM on CAMKK2 [2] (1.0 µM inhibitor) worked out at 60%.

`CNC(=O)c1cc(Oc2ccc(NC(=O)Nc3cc(C(C)(C)C)nn3-c3ccc4ncccc4c3)c(F)c2)ccn1` [Rebasitinib]: the “PoC (activity remaining)” value amounted to 95% at CAMKK2 [2] (0.01 µM inhibitor), 93% on CAMKK2 [2] (0.1 µM inhibitor) and 81% at CAMKK2 [2] (1.0 µM inhibitor).

For the molecule `Cn1cc(C2=C(c3cn(CCCSC(=N)N)c4ccccc34)C(=O)NC2=O)c2ccccc21` [Ro 31-8220], the “PoC (activity remaining)” value was 100% on CAMKK2 [2] (0.01 µM inhibitor), 100% at CAMKK2 [2] (0.1 µM inhibitor) and 85% on CAMKK2 [2] (1.0 µM inhibitor).

`O=C1NC(=NCc2cccs2)S/C1=C\c1ccc2ncccc2c1` [Ro 3306]: the “PoC (activity remaining)” value stood at 94% on CAMKK2 [2] (0.01 µM inhibitor), 94% on CAMKK2 [2] (0.1 µM inhibitor) and 88% at CAMKK2 [2] (1.0 µM inhibitor).

For the molecule `O=C1NC(=O)c2c1c1c3ccccc3n3c1c1c2c2ccccc2n1C1CCC3O1` [SB 218078], the entries for the “PoC (activity remaining)” value on CAMKK2 [2] (0.01 µM inhibitor), at CAMKK2 [2] (0.1 µM inhibitor) and at CAMKK2 [2] (1.0 µM inhibitor) were 98%, 86% and 64%, respectively.

Consider `O=C(O)c1ccc2c3c1cccc3c(=O)n1c3ccccc3nc21` [STO 609, 7-oxo-7H-benzimidazo[2,1-a]benz[de]isoquinoline-3-carboxylic acid], for which the IC50 on casein kinase 2 (CK2) was 190 nM. In addition, the “tolerability, hepatic and renal toxicity” value in the data set on mice is recorded as “well tolerated in mice without significant hepatic or renal toxicity”. Further, the “aryl hydrocarbon receptor binding/activation” value in data set [3] is “binds and activates the aryl hydrocarbon receptor”. The aqueous solubility result in data set [4] is listed as “poor aqueous solubility”. Besides, the remaining activity at 0.01 µM on CAMKK2 [2] (0.01 µM inhibitor) stood at 63%. The remaining activity at 0.1 µM at CAMKK2 [2] (0.1 µM inhibitor) turned out to be 56%. Besides, the remaining activity at 1 µM on CAMKK2 [2] (1.0 µM inhibitor) was found to be 21%. Further, the “metabolism on exposure to human liver microsomes” value in data set [5] was “metabolized to three mono-hydroxylated byproducts, principally by CYP1A2”.

`CN(C)S(=O)(=O)c1ccc2c(c1)/C(=C/c1cc3c([nH]1)CCCC3)C(=O)N2` [SU6656]: the remaining activity at 0.01 µM on CAMKK2 [2] (0.01 µM inhibitor) was found to be 95%. The remaining activity at 0.1 µM at CAMKK2 [2] (0.1 µM inhibitor) came out at 86%. Further, at CAMKK2 [2] (1.0 µM inhibitor), the remaining activity at 1 µM stood at 71%.

Regarding `CNC(=O)c1ccccc1Nc1nc(Nc2ccc(N3CCOCC3)cc2OC)ncc1Cl` [TAE226], the “PoC (activity remaining)” value at CAMKK2 [2] (0.01 µM inhibitor) stood at 104%; on CAMKK2 [2] (0.1 µM inhibitor) it was 97%; at CAMKK2 [2] (1.0 µM inhibitor), 90%.

With `COc1cc(N2CCC(N3CCN(C)CC3)CC2)ccc1Nc1ncc(Cl)c(Nc2ccccc2S(=O)(=O)C(C)C)n1` [TAE684], the remaining activity at 0.01 µM at CAMKK2 [2] (0.01 µM inhibitor) turned out to be 97%. At CAMKK2 [2] (0.1 µM inhibitor), the remaining activity at 0.1 µM amounted to 87%. Besides, the remaining activity at 1 µM on CAMKK2 [2] (1.0 µM inhibitor) is 42%.

As for `N#Cc1c(Oc2ccc(F)c(NC(=O)Cc3cccc(C(F)(F)F)c3)c2)ccc2nc(NC(=O)C3CC3)sc12` [TAK632], the figures for the “PoC (activity remaining)” value on CAMKK2 [2] (0.01 µM inhibitor), at CAMKK2 [2] (0.1 µM inhibitor) and on CAMKK2 [2] (1.0 µM inhibitor) were 92%, 87% and 82%, respectively.

With `CC(C)c1cc(CNc2nc(Nc3cc(C4CC4)[nH]n3)cc(N3CCN(C)CC3)n2)on1` [XL228], at CAMKK2 [2] (0.01 µM inhibitor), the remaining activity at 0.01 µM was found to be 94%. For the same molecule, at CAMKK2 [2] (0.1 µM inhibitor), the remaining activity at 0.1 µM was found to be 65%. Further, on CAMKK2 [2] (1.0 µM inhibitor), the remaining activity at 1 µM was 26%.
